# Values quoted from earlier work as cited in patent US20240173413A1, “Ultrasound Responsive Nanobubble Compositions and Methods of Production and Use Thereof” (University of Central Florida Research Foundation, lnc., priority 2021, published 2024).
# Where two headings read alike, the source gives them in different places.
# System: patients with postmenopausal osteoporosis
# Settings: Phase III, development terminated
smiles,measurement,setting,value
CC(C)(F)C[C@H](N[C@@H](c1ccc(-c2ccc(S(C)(=O)=O)cc2)cc1)C(F)(F)F)C(=O)NC1(C#N)CC1 [Odanacatib],adverse effects,,increased risk of stroke
same,adverse effects,listed as ODN,cardio-cerebrovascular adverse effects
